We go through 1 substance from patent US20190127805A1, “GENE SIGNATURES FOR CANCER DETECTION AND TREATMENT” (ALMAC DIAGNOSTICS LIMITED, priority 2016, published 2019).

Like-named read-outs stand apart in the source and are kept apart here.

Assay [1] has as its system platinum resistant epithelial ovarian cancer. The following applies: cited from earlier work.
In assay [2] the test system is platinum sensitive recurrent ovarian cancer. To be noted: cited from earlier work.
For assay [3], the system named is ovarian cancer. The following applies: cited from earlier work.
The subject of assay [4] is OVCAR3 isogenic cell lines co-cultured with ECFCs. The experiment in a line: In-vivo Matrigel plug angiogenesis assay (micro-vessel density). Details: species or system Athymic nude mice. To be noted: 5 mg/kg IP; OVCAR3 cisplatin-resistant vs cisplatin-naïve cells, p-value 0.0024 (FIG. 44). The method, then:
All animal experiments were performed in conformity to UK Home Office Regulations (PPL2729) and with authorization from Queen's University Belfast Animal Welfare and Ethical Review Body (AWERB). Eight week-old male Athymic nude mice (Harlan Laboratories) were used. ECFC were inoculated at a high density of 2.45×106 and co-cultured with GFP-labelled OVCAR3 WT or GFP-labelled OVCAR3-CP at a density of 1.4×106. The GFP-labelled OVCAR3 WT and GFP-labelled OVCAR3-CP were seeded alone at a density of 1.4×106. Each condition was diluted in 10 μL of phenol red-free DMEM and re-suspended in 90 μL of growth factor-reduced Matrigel (Corning) and injected subcutaneously. After 8 days, mice were sacrificed under isoflurane anaesthesia using 31 gauge needless intraperitoneal (IP) administration of sodium pentobarbital at 200 mg/kg, and implants were removed and fixed in 4% formaldehyde overnight. Fixed Matrigel implants were then embedded in paraffin and 10 μm sections were prepared for staining. For 5 mg/Kg bevacizumab was administered IP once weekly for 14 days. Treatment was commenced on day 3. Mice were sacrificed after a 14-day treatment period as previously described.
IHC and immunofluorescence studies were conducted as previously describe. […] CD31 and αSMA stained vessels were then counted per high power field (200×) in three separate fields of three independent tumors from each group. […]

The test system of assay [5] is ovarian cancer. The following applies: cited from earlier work. This is another data set of the same source.

In the case of “bevacizumab: recombinant humanised monoclonal antibody that binds to vascular endothelial growth factor A (VEGF-A)”, the “objective response rate (ORR)” value in assay [1] (bevacizumab and chemotherapy) was 30.9%. The overall survival in assay [1] (chemotherapy and bevacizumab arm (chemotherapy alone 13.3 months)) is recorded as 16.6 months. Further, the PFS in assay [1] (patients treated with bevacizumab and paclitaxel) is 9.6 months; in assay [3] (bevacizumab plus standard chemotherapy cycle 2-22 (control 10.3 months)), 14.1 months; in assay [3] (bevacizumab with standard chemotherapy cycle 2-6 (control 10.3 months)) it was 11.2 months. Further, the Progression free survival in assay [1] (single agent chemotherapy and bevacizumab (chemotherapy alone 3.4 months)) is 6.7 months. Further, the “hazard ratio for progression free survival” value in assay [1] (vs chemotherapy alone, 95% CI 0.32-0.53, p<0.001) is given as 0.42. The “HR for overall survival” value in assay [1] (vs chemotherapy alone, 95% CI 0.69-1.14, not statistically significant) is 0.89. Besides, the “Median progression free survival” value in assay [2] (bevacizumab + gemcitabine and carboplatin (placebo+GC 8.4 months)) is 12.4 months. Also, in assay [2] (vs placebo+GC, 95% CI 0.388-0.605, p<0.0001), the “HR for progression free survival” value is given as 0.484. For the same substance, the “HR for PFS” value is 0.908 in assay [3] (bevacizumab cycle 2-6, 95% CI 0.795 to 1.040, P=0.16) and 0.717 in assay [3] (bevacizumab plus chemotherapy cycle 2-22, 95% CI 0.625 to 0.824, P<0.001). Also, the “MVD (micro-vessel density)” value in assay [4] is “less MVD”. Moreover, the “progression free survival (PFS)” value in assay [5] (standard therapy plus bevacizumab (standard therapy alone 20.3 months)) is listed as 21.8 months. The “hazard ratio (HR) for PFS” value in assay [5] (vs standard therapy, 95% CI 0.70 to 0.94, P=0.004) was 0.81.
